Experimental data reported in PMC12020424, “Identification and Validation of Cyclic Peptides with Mucin-Selective, Location-Specific Binding in the Gastrointestinal Tract” (ACS Nano, 2025).
Bridge positions count the residues as written; N and C are the ends. Ends that are not written are not given here.

Tests used:
[1] = system: MUC5AC-containing stomach tissue; assay: Ex vivo fluorescent binding to stomach tissue; set-up: species or system porcine; settings: MUC5AC-selective peptides to stomach
Description: (§1) After identifying the peptide hits for each mucin, we tested their binding in an ex vivo setting (Figure S1), evaluating their interaction with mucin-containing porcine tissue and semiquantitatively representing it through fluorescent imaging (Figure 3a). The cyclic peptides were synthesized and conjugated to a fluorophore, Alexa Fluor 647 (AF647), at the N-terminus to allow fluorescent imaging to be used to semiquantitatively measure the peptides’ ex vivo tissue binding, compared to free AF647 and AF647 conjugated to wheat germ agglutinin (WGA), a known lectin for glycoproteins.[40] […] Porcine GI tissue was used due to its similarity in mucin expression compared to human GI tissue and its capacity to source large surface areas of tissue for experiments.[41],[42] Representative IVIS images are shown in Figure 3b-e, where the first four columns represent the four identified peptides (M2.1–M2.4 in Figure 3b,c, M5.1–M5.4 in Figure 3d,e), the fifth column represents WGA-AF647, and the sixth column represents AF647. The “score” results for the peptide ligands are presented in Figure 3f,g for the mucins of interest, with Tables S2–S5 and Figure S3 detailing results for the other tissues (the equation for calculating the “score” is found in the Materials and Methodssection). […] We also examined selectivity by incubating peptides on nontarget tissues. Figure 3h,i depicts the “selectivity” results for the MUC2-selective and MUC5AC-selective peptides, respectively. Selectivity was calculated by determining the ratio of the “score” for a particular mucin to the sum of the “scores” for all mucins (see the Materials and Methods section for the equation used).
The top-performing hits from phage display were tested on ex vivo segments of porcine mucin-containing tissues (jejunal, stomach, and esophageal tissues) obtained from local abattoirs or laboratory-maintained pigs. Tissue was used either immediately after acquisition or after storage at −80 °C; tissue was used at most 1 week after acquisition and storage at −80 °C. After acquisition and equilibration to room temperature, the tissue was washed twice with 25 mL (each) of cold 1× PBS to remove undigested food and other debris. After washing and cleaning, the tissue was mounted between two magnetic plates with holes corresponding to a 48-well plate, as previously described,[72] such that the luminal side of the tissue was facing up (Figure S1). After the tissue was mounted, the amount of peptide/protein corresponding to 40 μg of AF647 was suspended in 200 μL of 1× PBS and added to the wells created by the magnetic plates. This was done 3× for each formulation to perform the experiment in triplicate. In addition, plain 1× PBS was added to one well to serve as the background measurement. […] After washing was complete, fluorescence imaging was performed using an IVIS Spectrum fluorescent imaging system (PerkinElmer), with an automatically calculated exposure time (usually ∼1 s), a 20 cm × 20 cm field of view, and an excitation/emission of 640/680 nm, respectively. The imaging results were analyzed using Living Image software to calculate the total fluorescence intensity for each well, and the results for each hit or control were averaged across different wells. […]
(§2) To better account for tissue-to-tissue variability, the results for each trial were reported as scores rather than using the raw fluorescence intensity. […]

[2] = system: MUC2-containing intestinal tissue (jejunal); assay: Ex vivo fluorescent binding to small intestine tissue; set-up: species or system porcine; settings: MUC2-selective peptides to small intestine
Description: as §1
The top-performing hits from phage display were tested on ex vivo segments of porcine mucin-containing tissues (jejunal, stomach, and esophageal tissues) obtained from local abattoirs or laboratory-maintained pigs. Tissue was used either immediately after acquisition or after storage at −80 °C; tissue was used at most 1 week after acquisition and storage at −80 °C. After acquisition and equilibration to room temperature, the tissue was washed twice with 25 mL (each) of cold 1× PBS to remove undigested food and other debris. After washing and cleaning, the tissue was mounted between two magnetic plates with holes corresponding to a 48-well plate, as previously described,[72] such that the luminal side of the tissue was facing up (Figure S1). After the tissue was mounted, the amount of peptide/protein corresponding to 40 μg of AF647 was suspended in 200 μL of 1× PBS and added to the wells created by the magnetic plates. This was done 3× for each formulation to perform the experiment in triplicate. In addition, plain 1× PBS was added to one well to serve as the background measurement. After the peptides were added, the plate setup was covered with aluminum foil and allowed to incubate for 1 h at room temperature with gentle agitation (50 rpm). After incubation, the nonbinding peptides were removed by pouring out the solutions onto a clean paper towel, and the setup was washed three times by adding 200 μL of 1× PBS to each well and gently agitating the setup for 30 s before removing the washing solution. After washing was complete, fluorescence imaging was performed using an IVIS Spectrum fluorescent imaging system (PerkinElmer), with an automatically calculated exposure time (usually ∼1 s), a 20 cm × 20 cm field of view, and an excitation/emission of 640/680 nm, respectively. The imaging results were analyzed using Living Image software to calculate the total fluorescence intensity for each well, and the results for each hit or control were averaged across different wells. The negative control used was unconjugated AF647, while the positive control was WGA-AF647, since WGA is a known lectin that binds glycoproteins.
as §2

small intestine = assay: In vivo gastrointestinal localization, small intestine; set-up: species or system Sprague–Dawley rats; settings: AF647 conjugate, oral gavage, 1 mg/kg, fasted rats, n = 6, 6 h, segment fluorescence / sum of esophagus, stomach
Protocol: To measure the gastrointestinal localization of these peptides in vivo, peptides M2.3 and M5.2 with conjugated AF647 dye (as a model drug) were administered via oral gavage to fasted Sprague–Dawley rats, along with unconjugated AF647 dye and WGA-AF647. After 6 h, localization was measured by using fluorescent imaging on the rats’ GI tracts. The major results of the total binding fluorescence and organ-specific binding fluorescence for M2.3, as well as the total binding fluorescence and organ-specific binding fluorescence for M5.2, along with results for the AF647 and WGA-AF647 in each case, are shown in Figure 4, with more detailed results found in Figure S9. All results have been adjusted by subtracting the fluorescence from tissue from untreated rats. […]
All animal studies were carried out under the supervision of MIT’s Division of Comparative Medicine and in compliance with NIH’s Principles of Laboratory Animal Care, following the guidelines set forth by MIT’s Committee on Animal Care. Sprague–Dawley rats (200–300 g, a mix of male and female) were obtained from Charles River Laboratories and allowed to acclimate to their new conditions for 1 week, following which their diet was adjusted to an alfalfa-free diet (AIN-93M, TestDiet) for at least 7 days prior to the study in order to reduce background fluorescence. […]

MUC5AC [3] = target: T1, MUC5AC (Homo sapiens, UniProt P98088); assay: Phage ELISA on MUC5AC; format: binding; settings: phage clones displaying the peptide, 10^7 PFU/μL, MUC5AC-coated plate, anti-M13/HRP, TMB, 450 nm, blank subtracted, three wells; vs random library and insertless phage
Description: We next sought to validate the binding efficiency of these identified phage clones. We tested phage clones displaying peptides M2.1, M2.2, M2.3, and M2.4 for binding to MUC2, and phage clones displaying peptides M5.1, M5.2, M5.3, and M5.4 for binding to MUC5AC. We utilized a bacteriophage enzyme-linked immunosorbent assay to test the binding of the peptide hits to the specific target mucins, MUC2 and MUC5AC (Figure 2d). The spectrophotometer reported absorbance values at 450 nm. The intensity of the absorbance signal is proportional to the amount of peptide-mucin binding present in each sample. The negative controls (library samples and insertless samples) served as references for nonspecific binding.
First, mucin was coated onto the surface of a plastic plate overnight using the same process as that performed for the original phage display. The next morning, three wells of each phage clone were prepared, with each phage solution having a titer of 10^7 PFU/μL to ensure a fair comparison between the clones. […]
However, instead of eluting the bound phage, 100 μL of 1:2000 anti-M13/HRP mouse monoclonal antibody was added to each well, and the antibody was allowed to incubate with the wells for 30 min. […] The resulting solutions were analyzed by absorbance spectroscopy at a wavelength of 450 nm to determine the relative amount of phage present in each well.

MUC5AC [4] = target: T1, MUC5AC; assay: Phage display (CX7C library) against MUC5AC, Sanger sequencing; format: binding; settings: MUC5AC phage screening, third round of panning, 16 sequenced candidates
Protocol: For each mucin of interest, 5 μg of mucin protein was diluted in 150 μL of Tris-buffered saline (TBS) and added to 2 wells of a microtiter plate. The plate was left overnight in a humidified, sealed container with agitation at 50 rpm. After the overnight mucin coating, the solution was poured out, and 300 μL of blocking buffer was added to the wells for 1 h. After the 1 h waiting period, the blocking buffer was poured out, and the wells were washed three times with 300 μL of Tris-buffered saline with TBST (TBS + 0.1% (v/v) Tween-20) to remove nonspecific binding on the mucin layer coating. Next, 5 μL of the C7C library diluted with 95 μL of TBST was added to each blocked well and placed on shaker for 45 min, before pouring out the nonbinding phage and washing the plate ten times with TBST. A 0.2 M glycine-HCl elution buffer (pH 2.2, 100 μL) was added to each well and placed on a shaker for 20 min to release the mucin-layer binding peptides on the plate as unamplified eluate, with the pH neutralized by 30 μL of neutralization buffer (1 M Tris-HCl, pH 9).
E. coli liquid cultures were prepared by adding E. coli cells to 20 mL of LB media and placing them in shaking conditions at 37 °C and 250 rpm for 2 h and 45 min. The unamplified eluate (1 μL of which was saved for titering) was added to the E. coli cultures under the same conditions for 4 h and 45 min for amplification. […]

[5] = scaled between free AF647 (0) and WGA-AF647 (1), mean across trials n = 3

Overall nanoparticle “score” [1, 5] | Selectivity ([1]; score for MUC5AC tissue / sum of scores for all mucins, n = 3) | Overall nanoparticle “score” [2, 5] | Selectivity ([2]; score for MUC2 tissue / sum of scores for all mucins, n = 3) | % Prevalence (MUC5AC [4]) [%] | Substance | selectivity for the small intestine vs controls (small intestine) | phage ELISA binding vs negative controls (MUC5AC [3])
1 | 0.333 | 1 | 0.333 | – | Alexa Fluor 647-conjugated wheat germ agglutinin [WGA] | did not demonstrate a significant improvement over the free dye | –
– | – | – | – | 6.25 | CSSASVEWC (disulfide 1-9 (inferred)) [Peptide M5.4, CX7C cyclic peptide hit for MUC5AC; AF647 conjugated at N-terminus in ex vivo tests] | – | significantly greater binding to MUC5AC than the random library and insertless phage
